Results on 8 molecules are retold here after article PMC12368987 (2025).

For experiment [1], the system named is PFOS_JYP_2 (DNA, aptamer) CTCTCGGGACGACGGGGTAACGGTTTGATCTCCTTCGTGTTCTGTCGTCCC
As to the kind of experiment: ThT displacement fluorescence. The settings on record: pH 7.5; 400 nM aptamer, 10 μM thioflavin T; up to 50 μM.

Experiment [2] has as its system 16T (upper small loop without 16th thymine) (DNA, aptamer) AACGGTTTGATCTCCTCGTG
Briefly: ThT displacement fluorescence. The settings on record: pH 7.5; 400 nM aptamer, 10 μM thioflavin T; up to 50 μM.

The test system is the same in experiment [3]. Briefly: ThT displacement fluorescence, Hill fit. The settings on record: pH 7.5, RT, 70 min; 400 nM aptamer; 10 μM thioflavin T displaced.
In experiment [4] the test system is 11T (upper small loop without 11th thymine) (DNA, aptamer) AACGGTTTGACTCCTTCGTG
As to the kind of experiment: ThT displacement fluorescence, Hill fit. The settings on record: pH 7.5, RT, 70 min; 400 nM aptamer; 10 μM thioflavin T displaced.

Experiment [5] has as its system 10A (upper small loop without 10th adenine) (DNA, aptamer) AACGGTTTGTCTCCTTCGTG
As to the kind of experiment: ThT displacement fluorescence, Hill fit. The conditions noted are these: pH 7.5, RT, 70 min; 400 nM aptamer; 10 μM thioflavin T displaced.

Experiment [6] concerns PFOS_JYP_1 (DNA, aptamer) CTCTCGGGACGACGGGTAGTCTGTGTATGCTCGCAAGCGTGCTGTCGTCCC
As to the kind of experiment: ThT displacement fluorescence, Hill fit. The settings on record: pH 7.5, RT, 70 min; 400 nM aptamer; 10 μM thioflavin T displaced.

Experiment [7] has as its system 7T, 16T (DNA, aptamer) AACGGTTGATCTCCTCGTG
Briefly: ThT displacement fluorescence, Hill fit. The conditions noted are these: pH 7.5, RT, 70 min; 400 nM aptamer; 10 μM thioflavin T displaced.

Experiment [8] concerns 15C, 16T (DNA, aptamer) AACGGTTTGATCTCTCGTG
Briefly: ThT displacement fluorescence, Hill fit. The settings on record: pH 7.5, RT, 70 min; 400 nM aptamer; 10 μM thioflavin T displaced.

For experiment [9], the system named is 7T (upper small loop without 7th thymine) (DNA, aptamer) AACGGTTGATCTCCTTCGTG
As to the kind of experiment: ThT displacement fluorescence, Hill fit. The settings on record: pH 7.5, RT, 70 min; 400 nM aptamer; 10 μM thioflavin T displaced.

The test system of experiment [10] is 9G (upper small loop without 9th guanine) (DNA, aptamer) AACGGTTTATCTCCTTCGTG
Briefly: ThT displacement fluorescence, Hill fit. The conditions noted are these: pH 7.5, RT, 70 min; 400 nM aptamer; 10 μM thioflavin T displaced.

In experiment [11] the test system is 15C (upper small loop without 15th cytosine) (DNA, aptamer) AACGGTTTGATCTCTTCGTG
Briefly: ThT displacement fluorescence, Hill fit. The settings on record: pH 7.5, RT, 70 min; 400 nM aptamer; 10 μM thioflavin T displaced.

Experiment [12] concerns 10A, 16T (DNA, aptamer) AACGGTTTGTCTCCTCGTG
As to the kind of experiment: ThT displacement fluorescence, Hill fit. The conditions noted are these: pH 7.5, RT, 70 min; 400 nM aptamer; 10 μM thioflavin T displaced.

Experiment [13] concerns 11T, 16T (DNA, aptamer) AACGGTTTGACTCCTCGTG
Briefly: ThT displacement fluorescence, Hill fit. The settings on record: pH 7.5, RT, 70 min; 400 nM aptamer; 10 μM thioflavin T displaced.

The test system of experiment [14] is PFOS_JYP_3 (DNA, aptamer) CTCTCGGGACGACGGGGGTTGCATCTTTATATGTTTCTTCTCTGTCGTCCC
As to the kind of experiment: ThT displacement fluorescence, Hill fit. The settings on record: pH 7.5, RT, 70 min; 400 nM aptamer; 10 μM thioflavin T displaced.

In experiment [15] the test system is PFOS_JYP_7 (DNA, aptamer) CTCTCGGGACGACCACCAGGTCTCGTCTTATTGGCTATGTGTTGTCGTCCC
As to the kind of experiment: ThT displacement fluorescence, Hill fit. The conditions noted are these: pH 7.5, RT, 70 min; 400 nM aptamer; 10 μM thioflavin T displaced.

The test system of experiment [16] is PFOS_JYP_2 upper loop, ninth guanine mutated to cytosine (DNA, aptamer) AACGGTTTCATCTCCTTCGTG
Briefly: ThT displacement fluorescence, Hill fit. The settings on record: pH 7.5, RT, 70 min; 400 nM aptamer; 10 μM thioflavin T displaced.

The test system of experiment [17] is PFOS_JYP_4 (DNA, aptamer) CTCTCGGGACGACGGGGGGCTATTTCTTCATTCTCTGCTGACTGTCGTCCC
As to the kind of experiment: ThT displacement fluorescence, Hill fit. The conditions noted are these: pH 7.5, RT, 70 min; 400 nM aptamer; 10 μM thioflavin T displaced.

For experiment [18], the system named is PFOS_JYP_6 (DNA, aptamer) CTCTCGGGACGACGGCAGCTCAGCATCTTTGTTGCCCCTGACTGTCGTCCC
As to the kind of experiment: ThT displacement fluorescence, Hill fit. The conditions noted are these: pH 7.5, RT, 70 min; 400 nM aptamer; 10 μM thioflavin T displaced.

Experiment [19] concerns PFOS_JYP_6 (72 nt, qPCR) (DNA, aptamer) GGAGGCTCTCGGGACGACGGCAGCTCAGCATCTTTGTTGCCCCTGACTGTCGTCCCGATGCTGCAATCGTAA
As to the kind of experiment: qPCR Ct change of aptamer-gold nanoparticle complex. The settings on record: Mg2+ 2 mM (PBS); 1x PBS, pH 7.5; 100 pmol aptamer; 0-400 pM PFOS. For orientation: Quantitative PCR measures a nucleic acid by following its amplification.

In experiment [20] the test system is PFOS_JYP_2 (DNA, aptamer) CTCTCGGGACGACGGGGTAACGGTTTGATCTCCTTCGTGTTCTGTCGTCCC
Briefly: ThT displacement fluorescence, Hill fit. The settings on record: pH 7.5, RT, 70 min; 400 nM aptamer; 10 μM thioflavin T displaced.

Experiment [21] relates to PFOS_JYP_2 with flanking region shortened to 4 base pairs (DNA, aptamer) CGACGGGGTAACGGTTTGATCTCCTTCGTGTTCTGTCG
Briefly: ThT displacement fluorescence. The conditions noted are these: different PFOS concentrations; highest not stated in material.

For experiment [22], the system named is 9G, 16T (DNA, aptamer) AACGGTTTATCTCCTCGTG
As to the kind of experiment: ThT displacement fluorescence, Hill fit. The settings on record: pH 7.5, RT, 70 min; 400 nM aptamer; 10 μM thioflavin T displaced.

Experiment [23] relates to upper small loop of PFOS_JYP_2 (DNA, aptamer) AACGGTTTGATCTCCTTCGTG
Briefly: ThT displacement fluorescence, Hill fit. The conditions noted are these: pH 7.5, RT, 70 min; 400 nM aptamer; 10 μM thioflavin T displaced.

Experiment [24] relates to PFOS_JYP_5 (DNA, aptamer) CTCTCGGGACGACGGCCAGATGGAGCTTTTATTTCCCTTCCTCGTCGTCCC
As to the kind of experiment: ThT displacement fluorescence, Hill fit. The settings on record: pH 7.5, RT, 70 min; 400 nM aptamer; 10 μM thioflavin T displaced.

SMILES strings stand for the structures.

With `CCCCCCCCS(=O)(=O)O`, in experiment [1], the binding entry is “no”.

`O=C(O)C(F)(F)C(F)(F)C(F)(F)C(F)(F)C(F)(F)C(F)(F)C(F)(F)C(F)(F)C(F)(F)F`: the binding result in experiment [1] was “weak”.

Turning to `O=C(O)C(F)(F)C(F)(F)C(F)(F)C(F)(F)C(F)(F)C(F)(F)C(F)(F)C(F)(F)F`, the binding entry in experiment [2] and in experiment [1] was “weak” in each case.

As for `O=C(O)C(F)(F)C(F)(F)C(F)(F)C(F)(F)C(F)(F)C(F)(F)C(F)(F)F`, the binding entry in experiment [2] and in experiment [1] was “weak” in each case.

Consider `O=C(O)C(F)(F)C(F)(F)C(F)(F)F`, for which, in experiment [1], the binding entry is recorded as “no”.

A word on the KD: it is the concentration at which binding is half-saturated. As for `O=S(=O)(O)C(F)(F)C(F)(F)C(F)(F)C(F)(F)C(F)(F)C(F)(F)C(F)(F)C(F)(F)F`, the KD in [3] stood at 6.77 ± 0.16 µM; in [4], 8.60 ± 0.27 µM; in experiment [5], 8.30 ± 0.65 µM; in experiment [6], 6.93 ± 0.15 µM; in experiment [7], 7.97 ± 0.49 µM; in [8], 7.86 ± 0.18 µM. Further, the KD in [9] came out at 7.99 ± 0.50 µM; in experiment [10] it was 8.86 ± 0.53 µM; in experiment [11] it was 7.57 ± 0.12 µM; in experiment [12], 8.19 ± 0.04 µM; in [13], 8.82 ± 0.37 µM; in experiment [14], 7.82 ± 0.19 µM. For the same molecule, the KD in experiment [15] was found to be 8.42 ± 0.34 µM; in experiment [16], 18.23 ± 1.92 µM; in experiment [17] it was 6.87 ± 0.06 µM; in [18], 7.69 ± 0.04 µM; in experiment [20], 6.76 ± 0.20 µM; in [22], 7.35 ± 0.42 µM. Further, the KD was found to be 11.21 ± 0.16 µM in experiment [23] and 7.33 ± 0.21 µM in [24]. Also, the figures for the binding entry in [19] and in [21] were “yes” and “no”, respectively.

Consider `O=S(=O)(O)C(F)(F)C(F)(F)C(F)(F)C(F)(F)C(F)(F)C(F)(F)F`, for which the binding entry in experiment [2] and in experiment [1] was “weak” in each case.

Take `O=S(=O)(O)C(F)(F)C(F)(F)C(F)(F)C(F)(F)F`: the binding result in [1] is “no”.
